Measurements taken from the supplement of paper PMC10307832.

Compound: C[C@@H](C(=O)N[C@@H](C1CCCCC1)C(=O)N2CCC[C@H]2C(=O)N[C@@H]3[C@@H](CC4=CC=CC=C34)OCC#CC#CCO[C@@H]5CC6=CC=CC=C6[C@@H]5NC(=O)[C@@H]7CCCN7C(=O)[C@H](C8CCCCC8)NC(=O)[C@H](C)NC)NC [AZD5582] + Cc1cc(Nc2cc(N3CCN(C)CC3)nc(Sc3ccc(NC(=O)C4CC4)cc3)n2)n[nH]1 [Tozasertib] (partner 0.1 µM)
Experiment: relative viability (nuclei count vs DMSO), 5 days (fraction); higher = more cells survive
Conditions: first compound 0.05 µM
Method in brief: (§1)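 Relative viability divides the nuclei count in treated wells by that in vehicle wells. Lung cancer cell lines were seeded in 1536-well plates, dosed by pin tool the next day, and fixed and stained after 5 days in one step with final 0.05% Triton X-100, 1% formaldehyde and 1 ug/ml Hoechst. Dosing was a single drug or a fixed anchor-drug dose plus five library-drug doses (not always all listed) in √10 steps, and values are medians of duplicate plates imaged at 4×.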

| Cell Line | relative viability |
| --- | --- |
| NCI-H2085 | 0.606 |
| NCI-H2087 | 0.289 |
| NCI-H2126 | 0.573 |
| NCI-H2170 | 0.829 |
| NCI-H2347 | 0.553 |
| NCI-H2405 | 0.85 |
| NCI-H3122 | 0.121 |
| PC-3 [JPC-3] | 0.42 |
| PC-14 | 0.6 |
| RERF-LC-KJ | 0.259 |

Compound: C[C@@H](C(=O)N[C@@H](C1CCCCC1)C(=O)N2CCC[C@H]2C(=O)N[C@@H]3[C@@H](CC4=CC=CC=C34)OCC#CC#CCO[C@@H]5CC6=CC=CC=C6[C@@H]5NC(=O)[C@@H]7CCCN7C(=O)[C@H](C8CCCCC8)NC(=O)[C@H](C)NC)NC [AZD5582] + COc1cc2c(Oc3ccc(NC(=O)C4(C(=O)Nc5ccc(F)cc5)CC4)cc3F)ccnc2cc1OCCCN1CCOCC1 [Foretinib] (partner 0.25 µM)
Experiment: as above
Conditions: first compound 0.001581 µM
Method in brief: as §1

| Cell Line | relative viability |
| --- | --- |
| LK-2 | 0.88 |
| LOU-NH91 | 0.858 |
| LU99A | 0.871 |
| LXF-289 | 0.941 |
| NCI-H23 | 0.762 |
| NCI-H322M | 1.07 |
| NCI-H358 | 0.684 |
| NCI-H441 | 0.847 |
| NCI-H460 | 0.916 |
| NCI-H647 | 1.08 |
| NCI-H650 | 1 |
| NCI-H727 | 0.867 |
| NCI-H838 | 0.985 |
| NCI-H1355 | 0.894 |
| NCI-H1395 | 0.979 |
| NCI-H1437 | 1.17 |
| NCI-H1651 | 0.714 |
| NCI-H1666 | 0.786 |

| Cell Line | relative viability |
| --- | --- |
| NCI-H1734 | 0.814 |
| NCI-H1755 | 0.939 |
| NCI-H1793 | 0.737 |
| NCI-H1915 | 1.06 |
| NCI-H1944 | 0.8 |
| NCI-H1975 | 0.926 |
| NCI-H1993 | 0.792 |
| NCI-H2085 | 1.06 |
| NCI-H2087 | 0.957 |
| NCI-H2126 | 1.15 |
| NCI-H2170 | 1.04 |
| NCI-H2347 | 0.688 |
| NCI-H2405 | 1 |
| NCI-H3122 | 0.977 |
| PC-3 [JPC-3] | 0.866 |
| PC-14 | 0.903 |
| RERF-LC-KJ | 0.758 |

Same assay, conditions: first compound 0.005 µM

| Cell Line | relative viability |
| --- | --- |
| LK-2 | 1.12 |
| LOU-NH91 | 0.861 |
| LU99A | 0.948 |
| LXF-289 | 0.944 |
| NCI-H23 | 0.872 |
| NCI-H322M | 1.06 |
| NCI-H358 | 0.938 |
| NCI-H441 | 1.03 |
| NCI-H460 | 1.03 |
| NCI-H647 | 1.16 |
| NCI-H650 | 0.958 |
| NCI-H727 | 1.03 |
| NCI-H838 | 1.19 |
| NCI-H1355 | 0.881 |
| NCI-H1395 | 1.14 |
| NCI-H1437 | 1.22 |
| NCI-H1651 | 0.883 |
| NCI-H1666 | 1.02 |

| Cell Line | relative viability |
| --- | --- |
| NCI-H1734 | 0.892 |
| NCI-H1755 | 0.98 |
| NCI-H1793 | 0.827 |
| NCI-H1915 | 1.09 |
| NCI-H1944 | 0.976 |
| NCI-H1975 | 1.17 |
| NCI-H1993 | 0.786 |
| NCI-H2085 | 0.776 |
| NCI-H2087 | 1.24 |
| NCI-H2126 | 1.19 |
| NCI-H2170 | 1.01 |
| NCI-H2347 | 0.736 |
| NCI-H2405 | 1.07 |
| NCI-H3122 | 0.994 |
| PC-3 [JPC-3] | 0.809 |
| PC-14 | 1.06 |
| RERF-LC-KJ | 0.836 |

Same assay, conditions: first compound 0.01581 µM

| Cell Line | relative viability |
| --- | --- |
| LK-2 | 1.49 |
| LOU-NH91 | 0.934 |
| LU99A | 0.886 |
| LXF-289 | 1.03 |
| NCI-H23 | 0.787 |
| NCI-H358 | 0.779 |
| NCI-H460 | 0.952 |
| NCI-H596 | 1.19 |
| NCI-H647 | 1.1 |
| NCI-H650 | 0.91 |
| NCI-H727 | 1.01 |
| NCI-H1355 | 0.938 |
| NCI-H1395 | 1.04 |
| NCI-H1437 | 1.24 |
| NCI-H1666 | 0.953 |
| NCI-H1734 | 0.968 |

| Cell Line | relative viability |
| --- | --- |
| NCI-H1755 | 0.846 |
| NCI-H1793 | 0.572 |
| NCI-H1915 | 1.13 |
| NCI-H1944 | 0.93 |
| NCI-H1975 | 1.06 |
| NCI-H1993 | 0.854 |
| NCI-H2085 | 0.924 |
| NCI-H2087 | 1.05 |
| NCI-H2126 | 1.05 |
| NCI-H2170 | 1 |
| NCI-H2347 | 0.557 |
| NCI-H2405 | 0.987 |
| NCI-H3122 | 0.933 |
| PC-3 [JPC-3] | 0.96 |
| PC-14 | 0.938 |
| RERF-LC-KJ | 0.855 |

Same assay, conditions: first compound 0.05 µM

| Cell Line | relative viability |
| --- | --- |
| LK-2 | 1.25 |
| LOU-NH91 | 0.949 |
| LU99A | 1.03 |
| LXF-289 | 0.977 |
| NCI-H23 | 0.952 |
| NCI-H322M | 1.29 |
| NCI-H358 | 0.626 |
| NCI-H441 | 0.883 |
| NCI-H460 | 0.97 |
| NCI-H596 | 0.279 |
| NCI-H647 | 1.21 |
| NCI-H650 | 0.794 |
| NCI-H727 | 0.825 |
| NCI-H838 | 1.06 |
| NCI-H1355 | 0.705 |
| NCI-H1395 | 1.14 |
| NCI-H1437 | 1.16 |
| NCI-H1651 | 1.16 |

| Cell Line | relative viability |
| --- | --- |
| NCI-H1666 | 0.907 |
| NCI-H1734 | 1.11 |
| NCI-H1755 | 1 |
| NCI-H1793 | 0.908 |
| NCI-H1915 | 1.09 |
| NCI-H1944 | 1.05 |
| NCI-H1975 | 1.2 |
| NCI-H1993 | 0.715 |
| NCI-H2085 | 0.698 |
| NCI-H2087 | 1.16 |
| NCI-H2126 | 0.969 |
| NCI-H2170 | 1.09 |
| NCI-H2347 | 0.794 |
| NCI-H2405 | 1.06 |
| NCI-H3122 | 0.602 |
| PC-3 [JPC-3] | 0.488 |
| PC-14 | 0.945 |
| RERF-LC-KJ | 0.924 |
